Test results from patent EP4316461A1, “A PRESERVATIVE COMPOSITION” (BRAIN Biotech AG, priority 2022, dated 2024).
Values after ≈ are worked out from the molar mass of the structure shown.

Assays:
Type in all cases: cell-based
Zygosaccharomyces bailii = assay: Antimicrobial activity (MIC); details: Zygosaccharomyces bailii, DSM70834; Strain ID DSM 70834; potato dextrose broth pH 3.8; read-out: Minimal Inhibitory Concentration (MIC)
Clostridium perfringens = assay: microbe, parasite or virus in culture; details: Clostridium perfringens, DSM756, pH 3.8, read-out: Minimal Inhibitory Concentration (MIC)
Aspergillus brasiliensis = assay: Antimicrobial activity (MIC); details: Aspergillus brasiliensis, DSM1988; Strain ID DSM 1988; potato dextrose broth pH 3.8; read-out: Minimal Inhibitory Concentration (MIC)
Bacillus cereus = assay: Antimicrobial activity (MIC); details: Bacillus cereus; Strain ID DSM4490; potato dextrose broth pH 3.8; read-out: Minimal Inhibitory Concentration (MIC)
Leuconostoc lactis = assay: Antimicrobial activity (MIC); details: Leuconostoc lactis, DSM20202; Strain ID DSM 20202; potato dextrose broth pH 3.8; read-out: Minimal Inhibitory Concentration (MIC)
[1] = system: Fusobacterium nucleatum subsp. vincentii; assay: Antimicrobial activity (MIC); details: Fusobacterium nucleatum, DSM19507; Strain ID DSM 19507; potato dextrose broth pH 3.8; read-out: Minimal Inhibitory Concentration (MIC)
Porphyromonas gingivalis = assay: Antimicrobial activity (MIC); details: Porphyromonas gingivalis, DSM20709; Strain ID DSM 20709; potato dextrose broth pH 3.8; read-out: Minimal Inhibitory Concentration (MIC)
Saccharomyces cerevisiae = assay: Antimicrobial activity (MIC); details: Saccharomyces cerevisiae, DSM2548; Strain ID DSM 2548; potato dextrose broth pH 3.8; read-out: Minimal Inhibitory Concentration (MIC)
[2] = system: Brettanomyces naardenensis; assay: Antimicrobial activity (MIC); details: Brettanomyces naardenensis, CBS6115; Strain ID CBS 6115; potato dextrose broth pH 3.8; read-out: Minimal Inhibitory Concentration (MIC)
Yarrowia lipolytica = assay: Antimicrobial activity (MIC); details: Yarrowia lipolytica, DSM70561; Strain ID DSM 70561; potato dextrose broth pH 3.8; read-out: Minimal Inhibitory Concentration (MIC)
Zygosaccharomyces rouxii = assay: Antimicrobial activity (MIC); details: Zygosaccharomyces rouxii, DSM7525; Strain ID DSM 7525; potato dextrose broth pH 3.8; read-out: Minimal Inhibitory Concentration (MIC)
Penicillium expansum = assay: Antimicrobial activity (MIC); details: Penicillium expansum, DSM62841; Strain ID DSM 62841; potato dextrose broth pH 3.8; read-out: Minimal Inhibitory Concentration (MIC)
[3] = system: Lactobacillus plantarum ssp. plantarum; assay: Antimicrobial activity (MIC); details: Lactiplantibacillus plantarum, DSM20174; Strain ID DSM 20174; potato dextrose broth pH 3.8; read-out: Minimal Inhibitory Concentration (MIC)

## C[C@@H]1O[C@@H](O[C@H]2[C@H](O[C@H]3CC[C@@]4(C)[C@@H](CC[C@]5(C)[C@@H]4CC=C4[C@@H]6CC(C)(C)CC[C@]6(C(=O)O)CC[C@]45C)[C@]3(C)CO)OC[C@H](O)[C@@H]2O)[C@H](O)[C@H](O[C@@H]2OC[C@@H](O)[C@H](O)[C@H]2O)[C@H]1O [A, Sapindoside B [30994-75-3]]
Zygosaccharomyces bailii
  MIC: > 80 µg/mL
Clostridium perfringens
  MIC: > 80 µg/mL
Aspergillus brasiliensis
  MIC: > 80 µg/mL
Bacillus cereus
  MIC: > 80 µg/mL
Leuconostoc lactis
  MIC: 80 µg/mL (≈ 90.6 µM)
[1]
  MIC: 80 µg/mL (≈ 90.6 µM)
Porphyromonas gingivalis
  MIC: > 80 µg/mL
Saccharomyces cerevisiae
  MIC: > 80 µg/mL
[2]
  MIC: > 80 µg/mL
Yarrowia lipolytica
  MIC: > 80 µg/mL
Zygosaccharomyces rouxii
  MIC: 500 µg/mL (≈ 566 µM)
Penicillium expansum
  MIC: > 500 µg/mL
[3]
  MIC: 40 µg/mL (≈ 45.3 µM)
